Data taken from patent US10919862B2, “Fused imidazoles as mIDH1 inhibitors” (BAYER PHARMA AKTIENGESELLSCHAFT, priority 2015, dated 2021).

Legend:
IDH1 R132H enzyme = IDH1 R132H enzyme (Homo sapiens (Human), UniProt O75874, R132H); assay: Mutant IDH1 R132H biochemical assay; conditions: NADPH consumption, luminescent readout; 1.5 nM enzyme, 1 μM NADPH, 250 μM α-KG, 30 minutes, 32° C.
Protocol: Mutant IDH1 R132H Biochemical Assay
mIDH1 catalyzes the NADPH-dependent reduction of alpha-ketoglutarate (α-KG) to (2R)-2-hydroxyglutarate (2-HG). NADPH consumption was measured by luminescent readout.
The biochemical reactions were performed at 32° C. in 384-well plates using a reaction volume of 41 μL and the following assay buffer conditions: 50 mM Tris pH 7.5, 100 mM NaCl, 20 mM MgCl2, 0.05% BSA, 0.01% Brij, 1 μM NADPH, and 250 μM α-KG. The IDH1 R132H enzyme was used in a final concentration of 1.5 nM. Test compounds were used in a concentration range between 0.002 and 10 μM. The final DMSO concentration was 2.4%.
The reaction was incubated for 30 minutes, then 40 μL of detection mix (0.75 μg/ml Luciferase, 0.02 U/ml Oxidoreductase, 4 μg/mL FMN, 2 μL/ml decanal/ethanol, 50 mM Tris pH 7.5, 0.5% Glycerin, 0.01% Tween-20, 0.05% BSA) was added. Luminescence was measured on a luminescent reader (10 seconds measuring time, 1 second integration period, 30% sensitivity). The decrease in luminescence is proportional to mIDH1 activity. IC50 values are determined by interpolation from plots of relative luminescence versus inhibitor concentration.

LN229 R132H cells = assay: Mutant IDH1 cellular assay; assay type: cell-based; conditions: Homo sapiens, LN-229; 2-HG levels in medium of LN229 R132H cells, 24 hours, fluorescence readout
Protocol: Mutant IDH1 Cellular Assay
Levels of (2R)-2-hydroxyglutarate (2HG) were measured in medium of a cell line with overexpression of mutated isocitrate dehydrogenase (mIDH) protein. mIDH catalyzes the NADPH-dependent reduction of alpha-ketoglutarate to 2-HG. Cells (LN229 R132H, Mohrenz et al., Apoptosis (2013) 18:1416-1425) were grown in DMEM containing 10% FCS. They were harvested by trypsin and seeded into 96-well plates. Cells were incubated overnight at 37° C. in 5% CO2. The next day test compounds were added to each cell well. The final concentration of DMSO was 0.1% and DMSO controls were included. The plates were then placed in an incubator for 24 hours.
2-HG was measured according to Balss et al. (Acta Neuropathol (2012) 124: 883-891). Briefly, perchloric acid was added to each well and the plates were centrifuged. Aliquots are removed and incubated with hydroxyglutarate dehydrogenase (HGDH), diaphorase, NAD+, and resazurin. The conversion of resazurin to resorufin was detected by fluorescence spectroscopy at Ex 540 nm Em 600 nm. The increase in fluorescence is proportional to 2-HG production. IC50 values are determined by interpolation from plots of relative fluorescence vs inhibitor concentration.

Chain of IDH1 R132H enzyme (O75874 whole entry R132H): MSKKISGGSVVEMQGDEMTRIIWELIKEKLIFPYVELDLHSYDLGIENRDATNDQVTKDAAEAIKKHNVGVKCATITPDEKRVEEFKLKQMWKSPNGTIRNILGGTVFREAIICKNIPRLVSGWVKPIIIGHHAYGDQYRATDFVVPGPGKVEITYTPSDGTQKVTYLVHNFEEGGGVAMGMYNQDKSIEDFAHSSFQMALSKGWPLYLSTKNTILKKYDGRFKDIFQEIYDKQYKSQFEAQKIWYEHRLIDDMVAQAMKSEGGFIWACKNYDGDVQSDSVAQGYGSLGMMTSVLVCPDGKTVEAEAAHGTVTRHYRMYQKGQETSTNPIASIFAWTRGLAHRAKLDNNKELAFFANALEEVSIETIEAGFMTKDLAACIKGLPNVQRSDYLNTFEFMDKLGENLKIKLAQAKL

Compound | IC50 (IDH1 R132H enzyme) [nM] | IC50 (LN229 R132H cells) [nM]
C[C@H]1C[C@@H](n2c(Nc3ccc(OC(F)(F)F)cc3)nc3cc(CCC(=O)O)ccc32)CC(C)(C)[C@@H]1O [Example 2-5, 3-(1-[(1R,4R,5S)-4-hydroxy-3,35-trimethylcyclohexyl]-2-{[4-(trifluoromethoxy)-phenyl]amino}-1H-benzimidazol-5-yl)propanoic acid] | 4100 | 
CC1(C)C[C@@H](CO)C[C@@H](n2c(Nc3ccc(OC(F)(F)F)cc3)nc3cc(CCC(=O)O)ccc32)C1 [Example 2-3, 3-(1-[(1R,5R)-5-(hydroxymethyl)-3,3-dimethylcyclohexyl]-2-{[4-(trifluoromethoxy)-phenyl]amino}-1H-benzimidazol-5-yl)propanoic acid] | 180 | 1200
C[C@H]1C[C@@H](n2c(Nc3ccc(OC(F)(F)F)cc3)nc3cc(CCC(=O)O)ccc32)CC(C)(CO)C1 (stereo partly drawn) [Example 2-4, 3-(1-[(1R,5R)-3-(hydroxymethyl)-3,5-dimethylcyclohexyl]-2-{[4-(trifluoromethoxy)-phenyl]amino}-1H-benzimidazol-5-yl)propanoic acid] | 270 | 2200
C[C@H]1C[C@@H](n2c(Nc3ccc(OC(F)(F)F)cc3)nc3cc(C(=O)O)ccc32)CC(C)(C)[C@@H]1O [Example 2-2, 1-[(1R,4R,5S)-4-hydroxy-3,3,5-trimethylcyclohexyl]-2-{[4-(trifluoromethoxy)-phenyl]amino}-1H-benzimidazole-5-carboxylic acid] | 4800 | 
C[C@H]1C[C@@H](n2c(Nc3ccc(OC(F)(F)F)cc3)nc3cc(C(=O)O)ccc32)CC(C)(CO)C1 (stereo partly drawn) [Example 2-1, 1-[(1R,5R)-3-(hydroxymethyl)-3,5-dimethylcyclohexyl]-2-{[4-(trifluoromethoxy)-phenyl]amino}-1H-benzimidazole-5-carboxylic acid] | 500 | 
CC1(C)C[C@@H](n2c(Nc3ccc(OC(F)(F)F)cc3)nc3cnccc32)C[C@@](C)(CO)C1 [Example 2-6, [(1 S,5R)-1,3,3-trimethyl-5-(2-{[4-(trifluoromethoxy)phenyl]amino}-1H-imidazo-[4,5-c]pyridin-1-yl)cyclohexyl]methanol] | 30 | 1600
